{"source": "patent US7671054B1", "about": "“Reverse-turn mimetics and method relating thereto” (Choongwae Pharma Corporation, priority 2001, dated 2010)", "key": {"caspase 3": {"system": "caspase 3", "experiment": "Caspase 3 activity in cultured tumor cells", "format": "cell-based"}, "SW480 cells [1]": {"system": "SW480 cells", "experiment": "Flow cytometric analysis (FACS) of cell cycle", "format": "cell-based", "details": "25 μM, 24 hours", "description": "(§1) For FACS analysis, approx. 5×10^6 cells from Compound D-treated or vehicle-treated were fixed with 70% chilled ethanol and stored at −20° C. for at least 30 minutes. The cells were washed once with 1×PBS and incubated with propidium iodine (PI) solution (85 μg/ml propidium iodine, 0.1% Nonidet P-40, 10 mg/ml RNAse) for 30 minutes at room temperature. 10,000 stained cells for each sample were acquired using Beckman Coulter EPICS XL-MCL Flow Cytometry and the percentage of cells in different phase of the cell cycle was determined by Expo32 ADC software (Coulter Corporation, Miami, Fla., 33196).\n(§2) It has been shown that inhibition of the expression of the cyclin D1 gene causes arrest at the G1/S-phase of the cell cycle (Shintani et al., “Infrequent alternations of RB pathway (Rb-p16INK4A-cyclin D1) in adenoid cystic carcinoma of salivary glands,” Anticancer Res. 20:2169-75 (2000)). […] The cells were subsequently stained with propidium iodide (PI) and analyzed for DNA content by FACS cytofluorometry."}, "HCT116 cells": {"system": "HCT116 cells", "experiment": "Flow cytometric analysis (FACS) of cell cycle", "format": "cell-based", "details": "25 μM, 24 hours", "description": "as §1, §2"}, "SW480 cells [2]": {"system": "SW480 cells", "experiment": "Soft agar colony formation assay", "format": "cell-based", "description": "The soft agar colony formation assay was conducted with SW480 cells by some modification of the procedure previously described (Moody et al., “A vasoactive intestinal peptide antagonist inhibits non-small cell lung cancer growth,” Proc. Natl. Acad. Sci. USA. 90:4345-49 (1993)).\nEach well (35 mm) of a 6-well plate (Nalge Nunc International, Roskide, Denmark) was coated with 1 ml of 0.8% bottom agar in DMEM medium containing 10% fetal bovine serum. After it was solidified, 1 ml of DMEM medium containing 0.4% top agar, 10% fetal bovine serum, compound doubly concentrated, and 5,000 single viable cells was added to each well. The cultures were incubated at 37° C. in humidified 5% CO2 incubator. Colonies in soft agar were monitored daily and photographed after incubation for 8 days. Colonies>60 μm in diameter were counted."}, "[3]": {"system": "TCF/β-catenin reporter gene transcription in PC-12 PS-1/L286V cells", "experiment": "TOPFLASH luciferase assay in differentiated PC-12 cells", "format": "cell-based, Rat", "details": "PS-1/L286V mutant PC-12 cells; 10 μM plus NGF", "description": "(§3) Differentiated PC-12/L286V cells were treated with increasing concentrations of this compound for 4 hours. Transfection was then initiated after this treatment period.\nTransfection. PC-12 cells were cultured and differentiated on 60-mm dishes. At the end of the 10-day differentiation period, cells were transfected with 2 μg reporter constructs, TOPFLASH and FOPFLASH, per 60-mm dish. Transfections were performed using Superfect (Qiagen) according to manufacturer's instructions.\nLuciferase Assays. Cells were lysed, 6 hours after transfections, in 100 μl of Cell Culture Lysis Reagent (Promega, Madison, Wis.), and scraped into microcentrifuge tubes. Tubes were then centrifuged briefly (about 10 seconds) at 12000 rpm to pellet cell debris. Luciferase activity was measured on 20 μl of cell lysate and 100 μl substrate from the Luciferase Assay System (Promega). Luciferase activity was measure using Packard LumiCount. (Hewlett Packard). Quantitation of luciferase was performed in triplicates, and repeated in at least three independent experiments."}, "[4]": {"system": "caspase-3/7 in HCT116 cells", "experiment": "Caspase-3/7 activity assay", "format": "cell-based", "details": "25 μM, 24 hours, compared to CCD18Co cells", "description": "(§4) SW480, HCT116, and CCD18Co cells were plated at 10^5 cells per well (96-well plates) for 24 hours prior to treatment. […] 24 hours post treatment, cells were lysed and caspase activity was measured using a caspase-3/7 activity kit (Apo-One Homogeneous caspase-3/7 assay, #G77905, Promega). Relative fluorescence units (RFU) were obtained by subtracting the unit values of the blank (control, without cells) from the experimental measured values."}, "[5]": {"system": "caspase-3/7 in SW480 cells", "experiment": "Caspase-3/7 activity assay", "format": "cell-based", "details": "25 μM, 24 hours, compared to CCD18Co cells", "description": "as §4"}, "[6]": {"system": "survivin promoter in SW480 cells", "experiment": "Survivin luciferase reporter in SW480 cells", "format": "cell-based", "details": "SW480 cells; various concentrations"}, "[7]": {"target": "β-catenin/p300 interaction (Homo sapiens, UniProt Q09472)", "sequence (Q09472 whole entry)": "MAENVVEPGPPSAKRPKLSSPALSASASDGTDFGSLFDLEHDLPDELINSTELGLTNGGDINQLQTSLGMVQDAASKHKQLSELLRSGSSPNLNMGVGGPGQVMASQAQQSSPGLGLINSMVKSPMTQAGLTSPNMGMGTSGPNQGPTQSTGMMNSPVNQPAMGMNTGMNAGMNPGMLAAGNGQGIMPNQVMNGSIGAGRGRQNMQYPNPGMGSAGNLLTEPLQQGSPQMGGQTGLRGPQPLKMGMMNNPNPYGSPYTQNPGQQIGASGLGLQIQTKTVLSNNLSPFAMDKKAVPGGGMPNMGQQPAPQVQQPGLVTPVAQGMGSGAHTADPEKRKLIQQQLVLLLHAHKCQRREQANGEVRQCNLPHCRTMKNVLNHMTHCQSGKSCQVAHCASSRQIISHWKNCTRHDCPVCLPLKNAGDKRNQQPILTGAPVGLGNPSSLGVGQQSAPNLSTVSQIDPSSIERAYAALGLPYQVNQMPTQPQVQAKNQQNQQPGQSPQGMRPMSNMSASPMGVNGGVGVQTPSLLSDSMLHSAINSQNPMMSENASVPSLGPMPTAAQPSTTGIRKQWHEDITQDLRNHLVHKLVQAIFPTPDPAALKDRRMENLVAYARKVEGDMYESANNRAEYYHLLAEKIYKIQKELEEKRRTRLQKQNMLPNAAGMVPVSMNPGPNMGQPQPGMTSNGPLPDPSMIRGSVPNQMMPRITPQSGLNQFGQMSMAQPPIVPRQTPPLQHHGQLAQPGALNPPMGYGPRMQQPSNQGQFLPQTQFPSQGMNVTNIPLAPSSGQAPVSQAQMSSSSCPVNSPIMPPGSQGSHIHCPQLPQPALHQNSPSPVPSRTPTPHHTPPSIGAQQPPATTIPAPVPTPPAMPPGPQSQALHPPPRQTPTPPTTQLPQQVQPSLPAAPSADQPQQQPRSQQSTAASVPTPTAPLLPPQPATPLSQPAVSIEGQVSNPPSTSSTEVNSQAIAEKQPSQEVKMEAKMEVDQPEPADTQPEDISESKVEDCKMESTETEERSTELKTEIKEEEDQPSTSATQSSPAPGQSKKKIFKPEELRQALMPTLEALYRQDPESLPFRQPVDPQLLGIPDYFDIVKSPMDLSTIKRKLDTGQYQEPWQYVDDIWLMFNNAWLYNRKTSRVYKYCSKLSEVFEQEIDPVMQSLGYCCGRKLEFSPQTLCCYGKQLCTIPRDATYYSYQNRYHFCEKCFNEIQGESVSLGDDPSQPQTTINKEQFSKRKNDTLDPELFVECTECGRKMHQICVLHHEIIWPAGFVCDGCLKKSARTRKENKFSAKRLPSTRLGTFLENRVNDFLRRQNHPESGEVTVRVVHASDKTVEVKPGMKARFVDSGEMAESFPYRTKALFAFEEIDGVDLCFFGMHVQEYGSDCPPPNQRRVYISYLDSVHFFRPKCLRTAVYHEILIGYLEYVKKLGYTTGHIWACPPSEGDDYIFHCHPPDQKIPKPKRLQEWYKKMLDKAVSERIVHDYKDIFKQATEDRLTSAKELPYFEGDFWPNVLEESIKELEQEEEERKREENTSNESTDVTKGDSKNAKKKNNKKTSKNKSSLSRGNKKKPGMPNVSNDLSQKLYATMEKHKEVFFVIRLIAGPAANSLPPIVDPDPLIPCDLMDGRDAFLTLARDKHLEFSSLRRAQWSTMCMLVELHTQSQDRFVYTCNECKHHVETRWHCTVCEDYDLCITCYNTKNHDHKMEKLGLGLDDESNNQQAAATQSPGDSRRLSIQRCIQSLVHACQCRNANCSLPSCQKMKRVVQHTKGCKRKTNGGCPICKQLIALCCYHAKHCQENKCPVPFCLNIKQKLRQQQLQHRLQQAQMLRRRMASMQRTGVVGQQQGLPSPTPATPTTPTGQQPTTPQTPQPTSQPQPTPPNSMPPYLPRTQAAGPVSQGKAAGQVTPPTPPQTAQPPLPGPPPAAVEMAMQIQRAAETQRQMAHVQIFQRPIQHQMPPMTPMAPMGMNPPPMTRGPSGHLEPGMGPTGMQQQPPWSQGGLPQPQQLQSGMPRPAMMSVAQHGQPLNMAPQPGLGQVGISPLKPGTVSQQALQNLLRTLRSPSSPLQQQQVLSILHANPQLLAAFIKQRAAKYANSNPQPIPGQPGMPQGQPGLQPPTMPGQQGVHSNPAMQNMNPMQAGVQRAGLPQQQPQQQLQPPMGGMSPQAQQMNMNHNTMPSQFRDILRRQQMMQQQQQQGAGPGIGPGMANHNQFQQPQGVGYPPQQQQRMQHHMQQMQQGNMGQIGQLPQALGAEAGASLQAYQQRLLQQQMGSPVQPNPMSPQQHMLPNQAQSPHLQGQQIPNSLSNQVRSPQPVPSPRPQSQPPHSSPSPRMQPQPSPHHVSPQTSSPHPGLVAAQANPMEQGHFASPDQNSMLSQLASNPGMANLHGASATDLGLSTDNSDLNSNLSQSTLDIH", "details": "Emami et al., Cancer Cell, in press; cited from earlier work"}, "[8]": {"system": "GAP-43 in PC-12 PS-1/L286V cells", "experiment": "GAP-43 immunofluorescence", "format": "cell-based, Rat", "details": "PS-1/L286V mutant PC-12 cells; 10 μM", "description": "Immunofluorescence. Cells were plated at a density of 10,000 cells/cm^2 on sterile coated 22×22 mm coverslips in a 6-well culture plate. Differentiation was initiated, as previously described, for 10 days. The differentiated cells were then fixed in methanol for 15 minutes at −20° C. This is followed by a 15 minutes incubation with PBS+0.1% Triton X-100. The coverslips were incubated with antibodies raised against Ephrin B2 Receptor (Santa Cruz Biotechnology) and Gap-43 (Novus Biologicals) for 40 minutes at 37° C. After a series of washes with PBS-Triton X-100, secondary antibody conjugated to FITC (Jackson ImmunoResearch, Westgrove, Pa.) was applied. All slides images were acquired using a Nikon PCM2000 Laser Scanning Confocal Microscope mounted on a Nikon Eclipse E600 upright microscope (Nikon, Melville, N.Y.)."}, "[9]": {"system": "PC-12 cells overexpressing mutant PS-1/L286V", "experiment": "Neuronal differentiation and quantitation of neurite outgrowth", "format": "cell-based, Rat", "details": "PS-1/L286V mutant PC-12 cells", "description": "Cell Differentiation. Cell culture dishes were pre-coated overnight with 0.25 mg/ml collagen (Cohesion, Calif.), 10 μg/ml Poly-L-Lysine (Sigma-Aldrich, St. Louis, Mo.) and 12 μg/ml Polyethyleneimine (ICN, La Mesa, Calif.). Cells were cultured on coated dishes at 15,000 cells/cm^2, and differentiated into a neuron-like phenotype by incubation in medium with reduced serum (1% fetal bovine serum), containing 50 ng/ml nerve growth factor (NGF) (Sigma-Aldrich) for 10 days. NGF-containing medium was changed every 2-3 days.\nas §3\nQuantitation of Neurite Outgrowth. Cell counts were taken from six randomly chosen microscopic fields (10×). […] The number of cells with such outgrowths was then expressed as a percentage of the total number of cells. Values obtained were from duplicates of three independent experiments."}, "survivin in SW480 cells": {"system": "survivin in SW480 cells", "experiment": "Survivin immunofluorescence microscopy", "format": "cell-based"}, "caspase 2": {"system": "caspase 2", "experiment": "Caspase 2 activity in cultured tumor cells", "format": "cell-based", "details": "co-treatment of stausporine (0.5 μM) and Compound D"}, "[10]": {"system": "survivin promoter occupancy by CBP, β-catenin, Tcf4 and acetylated histone", "experiment": "ChIP assay on SW480 cells", "format": "cell-based", "details": "25 μM, 18 hours"}}, "note": "“Also recorded” adds a separate entry of the source.", "data": [{"smiles": "O=C1[C@H](Cc2ccc(O)cc2)N2C(=O)CCN(C(=O)NCc3ccccc3)[C@H]2CN1Cc1cccc2ccccc12", "note": "[Compound D]", "values": [{"measurement": "caspase 3 activity, co-treatment", "setting": "caspase 3; co-treatment of stausporine (0.5 μM) and Compound D", "value": "synergic stimuation of the caspase 3 activity"}, {"measurement": "caspase 3 activity", "setting": "caspase 3; cultured tumor cells, 2.5 μM or 5.0 μM", "value": "activates the caspase 3 activity"}, {"measurement": "cell cycle distribution (PI, FACS)", "setting": "SW480 cells [1]", "value": "increased accumulation at G1/S-phase of the cell cycle; also recorded: arrests cells in G1"}, {"measurement": "cell cycle distribution (PI, FACS)", "setting": "HCT116 cells", "value": "increased accumulation at G1/S-phase of the cell cycle; also recorded: arrests cells in G1"}, {"measurement": "number of colonies formed in soft agar", "setting": "SW480 cells [2]; 0.25-5 μM", "value": "reduces colony growth in soft agar in a dose dependent manner"}, {"measurement": "IC50", "setting": "SW480 cells [2]; Homo sapiens, 192 h, 8 days, colonies >60 μm", "value": "870 ± 110", "unit": "nM"}, {"measurement": "TCF/β-catenin reporter gene transcription", "setting": "[3]", "value": "decreased TCF/β-catenin reporter gene transcription"}, {"measurement": "caspase-3/7 activity", "setting": "[4]", "value": "selectively activates caspases in colon carcinoma cell lines"}, {"measurement": "caspase-3/7 activity", "setting": "[5]", "value": "selectively activates caspases in colon carcinoma cell lines"}, {"measurement": "survivin luciferase reporter activity", "setting": "[6]", "value": "inhibit expression of survivin; also recorded: inhibit the activity of a survivin luciferase reporter"}, {"measurement": "β-catenin/p300 interaction", "setting": "[7]", "value": "not the β-catenin/p300 interaction"}, {"measurement": "GAP-43 staining", "setting": "[8]", "value": "significantly elevated"}, {"measurement": "percentage of cells bearing neurites greater than twice the length of the cell body", "setting": "[9]; 10 μM", "value": "substantially increased the percentage of cells bearing neurites; also recorded: significantly increased"}, {"measurement": "neurite outgrowth and differentiation", "setting": "[9]; 10 μM plus NGF, 10 days", "value": "essentially normal neurite outgrowth and differentiation; also recorded: phenotypically corrects deficient neuronal differentiation"}, {"measurement": "survivin protein (immunofluorescence microscopy)", "setting": "survivin in SW480 cells", "value": "little or no survivin protein was detected"}, {"measurement": "caspase 2 activity, co-treatment", "setting": "caspase 2", "value": "not a synergic stimuation of the caspase 2 activity"}, {"measurement": "association of CBP, β-catenin, Tcf4 and acetylated histone with the survivin promoter (ChIP)", "setting": "[10]", "value": "decreases the association of all these proteins with the survivin promoter; also recorded: decreases the association of various proteins with the survivin promoter"}]}]}
